The source of these data is patent publication EP2948433B1, “ATGLISTATIN AS LIPASE INHIBITOR” (Technische Universität Graz, priority 2013, dated 2014).

Broadly, the IC50 is the concentration at which inhibition is half-maximal.

Structures can show the parent of a compound that is named as a salt.

The nature of data set [1]: Water solubility of the hydrochloride. Format: physicochemical. As to conditions: hydrochloride obtained as colourless oil. The protocol: (§1) As some compounds are not readily soluble in water, it may be preferable to prepare a more readily soluble form of a compound. A possible way to increase the water solubility of a compound is to generate its hydrochloride. The compound is suspended in dest. H2O and a 25 % HCl-solution is added until the solid is completely dissolved. Next, 1 M Tris-HCl-buffer is added to bring the solution to pH 7.4. This procedure yields usually good results. However, in some cases the compound may not be soluble or may precipitate when the pH of the solution elevated to bring it close to neutral pH. In this case, an alternative procedure is provided. The compound is suspended in diethyl ether and dichloromethane is added until the solid is completely dissolved. Then hydrochloric acid is added and all of the solvents are removed under reduced pressure and dried on high vacuum. The resulting colourless oil is water soluble. This procedure was followed with Atglistatin (compound 4) where NMR confirmed the structure of Atglistatin hydrochloride. The water soluble inhibitor may be injected in mice and its impact on the release of free fatty acids (FFA) and glycerol, measured.

Data set [2] in a line: Injection of the water soluble inhibitor in mice, release of FFA and glycerol. The format is in vivo. As for the experimental part: as §1
Atglistatin (compound 4) was administrated orally by gavage in olive oil (200 µl) or by IP injection. For IP administration, the hydrochloride was generated by the addition of 25% HCl resulting in a water soluble compound. […]

Data set [3] is described as follows: In vitro toxicity tests (not specified further). Format: cell-based.
For a further data set, the target named is T1, recombinant ATGL (Mus musculus, UniProt Q8BJ56).
T1 construct: Strep-tag; made in house; host or cells: E. coli (XL-1), vector pASK-IBA5+; crude lysate supernatant, not purified
T1 sequence (Q8BJ56 1-486): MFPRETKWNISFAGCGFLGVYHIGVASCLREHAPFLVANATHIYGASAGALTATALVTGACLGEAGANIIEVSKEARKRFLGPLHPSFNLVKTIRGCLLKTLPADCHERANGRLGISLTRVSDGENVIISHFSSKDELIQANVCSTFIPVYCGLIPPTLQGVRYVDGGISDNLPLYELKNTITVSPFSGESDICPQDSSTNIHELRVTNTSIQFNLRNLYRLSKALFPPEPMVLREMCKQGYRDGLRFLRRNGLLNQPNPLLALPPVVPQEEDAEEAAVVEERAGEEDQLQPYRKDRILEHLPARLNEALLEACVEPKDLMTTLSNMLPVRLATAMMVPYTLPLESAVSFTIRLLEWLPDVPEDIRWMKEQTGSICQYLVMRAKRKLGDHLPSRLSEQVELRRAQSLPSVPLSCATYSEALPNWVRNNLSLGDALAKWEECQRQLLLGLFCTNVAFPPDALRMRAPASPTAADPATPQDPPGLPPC
The data set can be described thus: TG hydrolase activity of E. coli lysates overexpressing recombinant strep-tagged ATGL and CGI-58, radiolabeled triolein substrate. Format: biochemical. The note with it: inhibition of the activity of recombinant ATGL. The protocol: • Figure 1. Structure of compounds 1 to 3 (reference) and compound 4 (atglistatin) and effect on ATGL activity. For determination of lipase activity, lysates of E. coli overexpressing recombinant strep-tagged ATGL and CGI-58 were incubated with a substrate containing radiolabeled [9,10-3H(N)]-triolein. Subsequently, FA were extracted and quantified by liquid scintillation counting. Lysates of cells expressing empty vector were set as blank. Inhibitors were solubilized in DMSO and added at the indicated concentrations. DMSO alone was used as negative control. (A) Structure and IC50 values of compounds 1-4. (B) Dose-dependent inhibition of ATGL in the presence of compound 3 and 4. […] (C) Lineweaver-Burk plots for kinetic analysis of ATGL inhibition. Experiments were performed at varying concentrations of substrate (0.05 - 3 mM) in presence and absence of compound 4 (Atglistatin). […] Data are presented as mean +/-S.D. of triplicate determinations. Data for compound 4 are representative for at least three independent experiments. • Figure 2. Selectivity of Atglistatin. Lipase activity of ATGL, HSL, lipoprotein lipase, and pancreatic lipase was determined using triolein as substrate. MGL activity was detected in the presence of rac-(1,3)-monooleoylglycerol as substrate. Inhibitors were solubilized in DMSO and added at the indicated concentrations. DMSO alone was used as negative control. (A) Dose-dependent inhibition of TG hydrolase activity in WAT lysates obtained from wild-type and ATGL-ko mice. (B) Inhibition of TG hydrolase activity in wild-type WAT lysates by Atglistatin (40 µM) and by the HSL inhibitor Hi 76-0079 (20 µM). (C) Effect of Atglistatin on murine MGL (purified from E. coli), and murine HSL (overexpressed in COS-7 lysates) activity. (D) Effect of Atglistatin on purified bovine LPL (Sigma) and pancreatic lipase (from porcine pancreas, Sigma). Data are presented as mean +/- S.D. of triplicate determinations and are representative for at least three independent experiments (p < 0.05 **, p < 0.01; ***, p < 0.001). • Figure 3 Inhibition of lipolysis in 3T3-L1 adipocytes and WAT organ cultures. (A,B) Differentiated 3T3 cells were preincubated with the indicated concentrations of Atglistatin. Thereafter, the medium was replaced by DMEM containing 2% BSA (fatty acid free), 10 µM forskolin, in the presence or absence of inhibitors. The release of FA (A) and glycerol (B) in the media was determined using commercial kits. Basal FA and glycerol release (not shown) was barely detectable under the applied conditions. Data are presented as mean +/- SD and are representative for 2 independent experiments. (C-F) Effect of Atglistatin on WAT basal (C, D) and forskolin-stimulated (E, F) lipolysis. Adipose tissue pieces (∼15 mg, n=5 for each concentration) of wild-type mice were cultured for 8 h in DMEM containing 2 % FA-free BSA and the indicated concentrations of Atglistatin. Subsequently, the medium was replaced by identical fresh medium and samples were collected after incubation for another hour in the presence or in the absence of 10 µM forskolin. Atglistatin was solubilized in DMSO and DMSO alone was used as negative control. Data are presented as mean +/- S.D. (*, p < 0.05 **, p < 0.01; ***, p < 0.001). • Figure 4 Inhibition of lipolysis in vivo. […] At the indicated timepoints blood was taken retroorbitally and plasma parameters were measured using commercial kits. […] 8 h after gavage blood was taken retroorbitally and plasma parameters were measured using commercial kits. […]

In a further data set the test system is ATGL. As to conditions: expressed ATGL (Jenkins 2004) or native ATGL in hepatocytes (Chung 2008); cited from earlier work.

For `CN(C)C(=O)Nc1cccc(-c2ccc(N(C)C)cc2)c1` [Atglistatin hydrochloride], in data set [1], the water solubility result is “water soluble”. Also, the “release of free fatty acids (FFA) and glycerol after injection” value in data set [2] was “reduction in the release of free fatty acids (FFA) and glycerol”.
As to `CCOC(=O)c1nn(-c2ccc(OCC)cc2)cc1O` [Compound 1, Ethyl 1-(4-ethoxyphenyl)-4-hydroxy-1H-pyrazole-3-carboxylate], the “toxicity in in vitro tests” value in data set [3] is “some limited toxicity”.
Regarding `CCOC(=O)c1cccc(-c2ccc(OCC)cc2)c1` [Compound 3, Ethyl 4'-ethoxybiphenyl-3-carboxylate, reference compound], the IC50 on recombinant ATGL was 12 µM.
As to `CCOC(=O)c1ccn(-c2ccc(OCC)cc2)n1` [Compound 2, Ethyl 1-(4-ethoxyphenyl)-1H-pyrazole-3-carboxylate, reference compound], the IC50 at recombinant ATGL was determined as 40 µM. Besides, the “toxicity in in vitro tests” value in data set [3] was “some limited toxicity”.
Turning to `O=C1O/C(=C/Br)CC[C@@H]1c1cccc2ccccc12` [(R)-Bromoenol lactone], in the data set with ATGL, the ATGL inhibitory activity entry is recorded as “has been demonstrated”.
